Reference: patent publication US20250263396A1, “CRYSTALLINE FORMS OF 3-(5-(2-HYDROXY-2- METHYLPROPOXY)-6-METHYPYRAZIN-2-YL)-1H-INDOLE-7-CARBONITRILE” (NIDO BIOSCIENCES, INC., priority 2024, published 2025)

Assays:
Assay type in all cases: physicochemical
[1] = Hygroscopicity by dynamic vapor sorption (DVS)
Protocol: Dynamic vapor sorption (DVS) was performed on an Intrinsic, Advantage or Adventure with an oven temperature of 25° C. using water as a solvent. The sample mass was about 5-10 mg using the following method: • Cycle: 40-0-95-0-40% RH • Stage Step: 10% • Equilibrium: 0.002 dm/dt (%/min) • Minimum dm/dt stability duration: 60 min • Maximum dm/dt stage time: 360 min.
Hygroscopicity of Form P was evaluated by dynamic vapor sorption (DVS) test at 25° C. Form P is non-hygroscopic at 80% RH; about 0.1% water uptake at 80% RH. Form P is slightly hygroscopic from 80% RH-95% RH: About 1.6% water uptake from 80% RH to 95% RH.

[2] = Dry grinding simulation experiments; settings: ground manually with mortar and pestle
Protocol: About 10 mg of Form P was ground manually with a mortar and a pestle for 1, 3 and 5 minutes.
About 10 mg of Form C was ground manually with a mortar and a pestle for 5 minutes.

[3] = Wet granulation simulation experiments
Protocol: Water or ethanol was added drop wise to about 10 mg of Form P until the sample is wetted sufficiently. Wet sample was ground gently with in a mortar and a pestle. Post granulation sample was dried under ambient condition for 10 min.
Water or ethanol was added drop wise to about 10 mg of Form C until the sample is wetted sufficiently. Wet sample was ground gently with in a mortar and a pestle. Post granulation sample was dried under ambient condition for 5 min.

[4] = Equilibration with solvents
Protocol: Obtained suspensions were filtered through a 0.45 μm nylon membrane filter by centrifugation at 14,000 rpm. Solid parts (wet cakes) were investigated by XRPD. For samples with different XRPD patterns, additional analysis including DSC, TGA, ^1H-NMR were performed.
(§1) Obtained suspensions were filtered through a 0.45 μm nylon membrane filter by centrifugation at 14,000 rpm.
as §1

[5] = 10% relative humidity at 25° C.
[6] = 20% relative humidity at 25° C.
[7] = 30% relative humidity at 25° C.
[8] = 40% relative humidity at 25° C.
[9] = 50% relative humidity at 25° C.
[10] = 60% relative humidity at 25° C.
[11] = 70% relative humidity at 25° C.
[12] = 80% relative humidity at 25° C.
[13] = 90% relative humidity at 25° C.
[14] = 95% relative humidity at 25° C.

For Cc1nc(-c2c[nH]c3c(C#N)cccc23)cnc1OCC(C)(C)O [Form P, 3-(5-(2-hydroxy-2-methylpropoxy)-6-methylpyrazin-2-yl)-1H-indole-7-carbonitrile], the “1st desorp. Weight % change” value ([1]; 0% relative humidity at 25° C.) was 0.1%, the “1st sorp. Weight % change” value ([1]; 0% relative humidity at 25° C.) was 0.1% and the “2nd desorp. Weight % change” value ([1]; 0% relative humidity at 25° C.) was 0.0%. For the same compound, the “2nd sorp. Weight % change” value ([1]; 0% relative humidity at 25° C.) was 0.0%, the “1st desorp. Weight % change” value [1, 5] was 0.1% and the “1st sorp. Weight % change” value [1, 5] was 0.1%. The “2nd desorp. Weight % change” value [1, 5] was 0.0%, the “2nd sorp. Weight % change” value [1, 5] was 0.0% and the “1st desorp. Weight % change” value [1, 6] was 0.1%. The “1st sorp. Weight % change” value [1, 6] was 0.1%, the “2nd desorp. Weight % change” value [1, 6] was 0.0% and the “2nd sorp. Weight % change” value [1, 6] was 0.0%. For the same compound, the “Form after the DVS test” value ([1]; 25° C.) was “still in Form P”, the “1st desorp. Weight % change” value [1, 7] was 0.2% and the “1st sorp. Weight % change” value [1, 7] was 0.1%. For the same compound, the “2nd desorp. Weight % change” value [1, 7] was 0.1%, the “2nd sorp. Weight % change” value [1, 7] was 0.0% and the “1st desorp. Weight % change” value [1, 8] was 0.2%. The “1st sorp. Weight % change” value [1, 8] was 0.1%, the “2nd desorp. Weight % change” value [1, 8] was 0.1% and the “2nd sorp. Weight % change” value [1, 8] was 0.0%. For the same compound, the “1st sorp. Weight % change” value [1, 9] was 0.1%, the “2nd desorp. Weight % change” value [1, 9] was 0.1% and the “1st sorp. Weight % change” value [1, 10] was 0.1%. The “2nd desorp. Weight % change” value [1, 10] was 0.2%, the “1st sorp. Weight % change” value [1, 11] was 0.1% and the “2nd desorp. Weight % change” value [1, 11] was 0.3%. The “1st sorp. Weight % change” value [1, 12] was 0.2%, the “2nd desorp. Weight % change” value [1, 12] was 0.4% and the “1st sorp. Weight % change” value [1, 13] was 0.8%. For the same compound, the “2nd desorp. Weight % change” value [1, 13] was 0.9%, the “1st sorp. Weight % change” value [1, 14] was 1.8% and the “2nd desorp. Weight % change” value [1, 14] was 1.8%. For the same compound, the Hygroscopicity ([1]; at 80% RH, 25° C.) was “non-hygroscopic (water uptake <0.2% = non-hygroscopic)”, the water uptake ([1]; at 80% RH, 25° C.) was “about 0.1%” and the water uptake ([1]; from 80% RH to 95% RH, 25° C.) was “About 1.6%”. For the same compound, the Hygroscopicity ([1]; from 80% RH-95% RH, 25° C.) was “slightly hygroscopic (water uptake ≥0.2% but <2% = slightly hygroscopic)”, the “Comments (crystallinity)” value ([2]; 1 min) was “No obvious change in crystallinity” and the XRPD ([2]; 1 min) was “Form P”. For the same compound, the “Comments (crystallinity)” value ([2]; 3 min) was “No obvious change in crystallinity”, the XRPD ([2]; 3 min) was “Form P” and the “Comments (crystallinity)” value ([2]; 5 min) was “No obvious change in crystallinity”. For the same compound, the XRPD ([2]; 5 min) was “Form P”, the “Comments (crystallinity)” value ([3]; granulation solvent Ethanol) was “No obvious change in crystallinity” and the XRPD ([3]; granulation solvent Ethanol) was “Form P”. The “Comments (crystallinity)” value ([3]; granulation solvent Water) was “No obvious change in crystallinity”, the XRPD ([3]; granulation solvent Water) was “Form P” and the XRPD after equilibration ([4]; 2-MeTHF, 25° C., 2 weeks) was “Form P”. For the same compound, the XRPD after equilibration ([4]; 2-MeTHF, 50° C., 1 week) was “Form P”, the XRPD after equilibration ([4]; 2-MeTHF/heptane (v:v = 1:1), 25° C., 2 weeks) was “Form P” and the XRPD after equilibration ([4]; 2-MeTHF/heptane (v:v = 1:1), 50° C., 1 week) was “Form P”. For the same compound, the XRPD after equilibration ([4]; 2-MeTHF/heptane (v:v = 3:1), 25° C., 2 weeks) was “Form P”, the XRPD after equilibration ([4]; 2-MeTHF/heptane (v:v = 3:1), 50° C., 1 week) was “Form P” and the XRPD after equilibration ([4]; 2-Propanol, 25° C., 2 weeks) was “Form P”. The XRPD after equilibration ([4]; 2-Propanol, 50° C., 1 week) was “Form P”, the XRPD after equilibration ([4]; Acetone, 25° C., 2 weeks) was “Form P” and the XRPD after equilibration ([4]; Acetone, 50° C., 1 week) was “Form P”.
